In experiment [1] the test system is Ch-1 cells. Put plainly: Cell adhesion assay (Ch-1 cells on wells coated with recombinant proteins). The experiment is classed as cell-based, human. Particulars: wells coated with recombinant protein. On the procedure:
Cell Adhesion Assay. Cell adhesion assays were performed using a spectrometric method. A 96-well plate was coated at 4° C. overnight with recombinant proteins. Wells were washed three times with RPMI-1640 medium containing 10% FBS. Ch-1 cells were harvested with limited trypsin digestion and plated at 5×10^4 cells per well in RPMI-1640 medium supplemented with 10% FBS for an hours. Proteins were added and incubation continued for 1 hour. The wells were washed three times with pre-warmed PBS to remove non-adherent cells. The adherent cells were fixed with 4% paraformaldehyde in PBS for 10 minutes at room temperature and stained with 0.5% toluidine blue for 5 minutes. The wells were rinsed with water and cells were solubilized with 0.1% SDS. Absorbance at 595 nm was recorded on a SpectraMax plate reader. Synthetic blocking peptides and antibodies to αVβ3 and αVβ5 integrin were pre-incubated with cells for 15 to 30 mins before they were added onto the wells in the inhibition assays.
Cell Culture. Human Chondrosarcoma cell line (Ch-1) was isolated from a portion of chondrosarcoma tumor (Chansky et al., J Orthop Res. (1998) 16(5):521-30). The Ch-1 cell line was maintained in RPMI-1640 supplemented with 10% FBS and at 37° C. in a humidified, 5% CO2 atmosphere.

A further experiment deals with T1, αV integrin (Homo sapiens, UniProt P06756).
T1 construct: Cell homogenates were then mixed with GST, PIIBNP, or mPIIBNP; endogenous in cells; host or cells: Ch-1 human chondrosarcoma cell lysate
Briefly: Integrin αV immunoprecipitation. The experiment is classed as binding. The conditions noted are these: Ch-1 cell lysates. On the procedure:
Integrin αV Immunoprecipitation. Ch-1 cells were lysed in lysis buffer (50 mM Hepes-KOH [pH 7.4]; 150 mM NaCl; 1% Triton X-100; 10% glycerol; 1 mM EGTA; 1 mM EDTA; 10 mM sodium pyrophosphate; 100 mM sodium fluoride; 0.2 mM sodium orthovanadate; supplemented with the proteinase inhibitors cocktail (Sigma) overnight at 4° C. Cell homogenates were then mixed with GST, PIIBNP, or mPIIBNP and incubated for 1 hours at room temperature. Protein A agarose (Sigma) previously bound with integrin αV antibody was incubated with cell homogenate mixture for 4 h at 4° C. with gentle shaking. After washing (5 mins.×3), the precipitated material was analyzed by SDS-PAGE and detected with chicken anti PIIBNP antibody.

Another experiment concerns HeLa 229 cells. Briefly: Cell survival assay in HeLa 229 cells. The experiment is classed as cell-based, human. On the procedure:
Cell Culture. Human Chondrosarcoma cell line (Ch-1) was isolated from a portion of chondrosarcoma tumor. […] HUVEC cells were a gift from Dr. William Frazier (Washington University) and were cultured in M199 Earle's medium with 10 units/ml of penicillin, 5 μg/ml streptomycin and 0.25 μg/ml Fungizone supplemented with 10% FBS, 0.1 mg/ml L-glutamine, 25 mM Hepes, 16 units/ml of heparin (Sigma) and 0.1 mg/ml endothelial cell mitogen (Biochemical Technologies).
Detection of Cell Death. Cells were cultured to confluence in a 24-well plate pre-coated with type I collagen, fibronectin (Sigma), and ECM Matrigel (Becton Dickinson). Proteins in serum-free medium were added to the cells. Cells were monitored by light microscopy and images were digitally photographed using a Q capture Retiga 2000R camera. Quantification of cells remaining in the well was performed by washing with PBS for three times, fixing with 4% paraformaldehyde. The cells per field (×400) were counted for three field per well (3 wells per measurement). The mean number and standard deviation (SD) were calculated.

Experiment [2] relates to normal human articular chondrocytes. Briefly: Cell survival assay in normal human articular chondrocytes. The experiment is classed as cell-based. Particulars: high-density monolayers. The method, then:
Cell Culture. Human Chondrosarcoma cell line (Ch-1) was isolated from a portion of chondrosarcoma tumor. The Ch-1 cell line was maintained in RPMI-1640 supplemented with 10% FBS and at 37° C. in a humidified, 5% CO2 atmosphere. Human chondrocytes were obtained from Dr. Davis Adkisson (ISTO Technologies, St. Louis) or isolated from macroscopically intact tissue obtained from total joint arthroplasty as described (Bassleer et al., 1998). HeLa 229 cells and MDA-MB 231 cell lines were provided by Dr. Kathy Weilbaecher (Washington University) and were cultured in RPMI medium supplemented with 10% FBS. HUVEC cells were a gift from Dr. William Frazier (Washington University) and were cultured in M199 Earle's medium with 10 units/ml of penicillin, 5 μg/ml streptomycin and 0.25 μg/ml Fungizone supplemented with 10% FBS, 0.1 mg/ml L-glutamine, 25 mM Hepes, 16 units/ml of heparin (Sigma) and 0.1 mg/ml endothelial cell mitogen (Biochemical Technologies).
Detection of Cell Death. […] Cells were monitored by light microscopy and images were digitally photographed using a Q capture Retiga 2000R camera. Quantification of cells remaining in the well was performed by washing with PBS for three times, fixing with 4% paraformaldehyde. The cells per field (×400) were counted for three field per well (3 wells per measurement). The mean number and standard deviation (SD) were calculated.

The test system of experiment [3] is Ch-1 cells. Briefly: Migration of Ch-1 cells. The experiment is classed as cell-based, human. Particulars: data not shown.
The next experiment deals with mouse osteoclast cells. Briefly: Osteoclast viability (trypan blue exclusion). The conditions noted are these: 16 hours at 37° C. The experiment is classed as cell-based. The method, then: FIG. 10 depicts a graph showing mouse chondrogenic cells (ATDC5), mouse osteoblast cells, and mouse osteoclast cells treated with recombinant GST, PIIBNP or mPIIBNP proteins for 16 hours at 37° C. The cells were trypsinized and cell viability was assayed using a trypan blue exclusion based cell counting. PPIIBNP induced death in osteoclasts that resorb the bone, but not the osteoblasts that form bone.

Experiment [4] has as its system osteoclasts differentiated from Raw 264.7 cells, integrin αv siRNA treated. Briefly: Osteoclast death after integrin αv siRNA. The experiment is classed as cell-based, mouse. The conditions noted are these: 16 hours. On the procedure:
FIG. 11 depicts a graph showing PIIBNP-induced osteoclast death. siRNA specifically targeted to integrin αv was purchased from San Cruz (San Cruz, Calif.). Raw 264.7 cells were differentiated into osteoclasts by treatment with 100 nM of s-RANKL. The integrin αv expression in the […] were suppressed by treatment of the cells with siRNA. Integrin αv suppressed osteoblasts were incubated with recombinant GST, PIIBNP or mPIIBNP for 16 hours. Cell viability was assayed by a trypan blue exclusion test as described in FIG. 3.

T1 sequence (P06756 31-889 limits assumed): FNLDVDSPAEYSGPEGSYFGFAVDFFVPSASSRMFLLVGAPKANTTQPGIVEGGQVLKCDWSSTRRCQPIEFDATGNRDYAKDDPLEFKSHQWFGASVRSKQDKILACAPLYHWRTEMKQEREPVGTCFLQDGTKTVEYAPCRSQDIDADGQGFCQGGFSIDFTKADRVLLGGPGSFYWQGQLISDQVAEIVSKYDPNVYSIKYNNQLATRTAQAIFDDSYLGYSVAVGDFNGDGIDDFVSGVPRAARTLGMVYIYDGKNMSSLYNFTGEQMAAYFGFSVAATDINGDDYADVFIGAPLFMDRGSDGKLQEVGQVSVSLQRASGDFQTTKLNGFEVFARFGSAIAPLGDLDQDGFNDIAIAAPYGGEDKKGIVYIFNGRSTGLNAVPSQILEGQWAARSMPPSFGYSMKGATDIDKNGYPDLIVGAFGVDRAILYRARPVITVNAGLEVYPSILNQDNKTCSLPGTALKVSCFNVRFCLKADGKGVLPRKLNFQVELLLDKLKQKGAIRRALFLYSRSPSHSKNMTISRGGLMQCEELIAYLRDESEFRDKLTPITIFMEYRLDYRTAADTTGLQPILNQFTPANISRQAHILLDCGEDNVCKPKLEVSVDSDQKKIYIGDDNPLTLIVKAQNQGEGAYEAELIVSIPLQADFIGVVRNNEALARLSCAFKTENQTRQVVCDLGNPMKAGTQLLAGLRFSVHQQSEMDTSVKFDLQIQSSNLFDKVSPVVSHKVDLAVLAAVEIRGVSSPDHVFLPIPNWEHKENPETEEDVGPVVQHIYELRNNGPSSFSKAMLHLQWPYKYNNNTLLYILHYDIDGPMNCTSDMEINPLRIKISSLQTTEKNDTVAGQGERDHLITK
T1 sequence (P06756 891-1048 limits assumed): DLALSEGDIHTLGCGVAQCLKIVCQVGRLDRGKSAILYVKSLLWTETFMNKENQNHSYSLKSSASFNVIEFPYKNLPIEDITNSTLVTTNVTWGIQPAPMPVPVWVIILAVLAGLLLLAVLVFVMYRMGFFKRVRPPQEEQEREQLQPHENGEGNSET

Take “PIIBNP: Recombinant human Type IIB procollagen NH2-propeptide (exons 3-8, lacking exon 2), expressed as GST fusion protein”: the “adhesion to Ch-1 cells” value with Ch-1 cells [1] is on record as “shown to adhere”; in the experiment on Ch-1 cells [1] (listed as GST-PIIBNP) it was “strong binding”. Moreover, the “immunoprecipitation with αV integrin specific antibody” value with αV integrin is given as “immunoprecipitated”. In the experiment with HeLa 229 cells (HeLa 229 cells, FIG. 4M), this substance had a cell death of more than 80%. Further, the survival in the experiment with HeLa 229 cells (HeLa cells) amounted to 20%. For the same substance, the “induction of cell death in normal chondrocytes” value in experiment [2] is “did not induce cell death”. Further, the “inhibition of migration of Ch-1 cells” value in the experiment with Ch-1 cells [3] is “can inhibit migration”. For the same substance, the “induction of osteoclast death” value is listed as “induced death” in the experiment with mouse osteoclast cells (listed as PPIIBNP) and “induced the death” in the experiment on mouse osteoclast cells (listed as Type IIB propeptide). The “PIIBNP-induced osteoclast death after integrin αv siRNA compared with control siRNA” value in experiment [4] is “significantly reduced”.

For the origin of these results see patent US7851436B2, “Inhibition of migration and induction of cell death by the type II collagen amino propeptides” (Washington University, priority 2007, dated 2010).
